Test: Human HepG2 cell viability assay in 384 well format
Type: toxicity, cell-based
Parameters: dose 125 nL, time 70.5 hour; concentration not given beside the values
Details: HepG2 cells, read-out: Inhibition

SMILES	cytotoxicity at 70.5 h
O=C(O)c1ccccc1C1CCN(C2Cc3ccccc3C2)C1 (centres undefined)	-1.24%
Cc1ccc2nc(-c3cnc(N)nc3)c(C)c(C(=O)N(C)C)c2c1	11.2%
NC(=O)N1CCCC(c2nc(-c3cccnn3)no2)C1 (centres undefined)	-5.18%
COCCN1C(=O)[C@H]2CC[C@@H]1CN(c1ncccn1)C2	11.5%
CN1CCCCCC1C(=O)N1CCCN(c2ccccc2)CC1 (centres undefined)	4.68%
COc1cccc(CCC2CCCN(C(=O)c3cnccn3)C2)c1 (centres undefined)	-7.12%
Cc1cc(C(=O)N2CCC3(CCNCC3)CC2)c2cccc(C)c2n1	43.8%
CCc1nc(C)c([C@H]2CN(C)C[C@@H]2C(=O)Nc2ccccc2F)[nH]1	-13.9%
Cc1ccc(CCNc2ncnc3sc4c(c23)CCNC4)o1	-8.67%
Cc1cc(-n2cccn2)ccc1CN1CCOCC(CN(C)C)C1 (centres undefined)	27.5%
O=C(O)CSc1nnc(-c2ccn[nH]2)n1-c1ccccc1Cl	-6.93%
Cn1ncc2c(N[C@H]3CC[C@@H](N)CC3)nc(C(C)(C)C)nc21	6.09%
CN(CC1(O)CCCN(Cc2cccc(F)c2F)C1=O)C1CCCCC1 (centres undefined)	-0.975%
O=C(c1ccc(O)cn1)N1CCOC(Cc2cccc(C(F)(F)F)c2)C1 (centres undefined)	22.6%
Cc1cc(N2CCCN(Cc3ccc(C)o3)CC2)ccn1	-3.18%
CN(C)CCNc1ccc(-c2nc(-c3ccccc3F)no2)cn1	0.837%
CN(C)C(C(=O)NCCn1cccc1)c1cccc(F)c1 (centres undefined)	-4.48%
COCCCN1CC2(CCN(C(=O)c3ncc(F)cc3F)CC2)CC1=O	-9.33%
CC1(C)OC(=O)N(CC(=O)N2CCC(c3ccccc3Cl)C2)C1=O (centres undefined)	-6.23%
CCC[C@@H]1CN(c2ncnc3sccc23)C[C@H]1NS(C)(=O)=O	-4.58%
COc1cccc([C@H]2CN(C(=O)c3cc(C)on3)C[C@@H]2N)c1	-10.9%
CSCc1ccc(N(C)CC2CCCN(C(C)C)C2)nc1 (centres undefined)	-2.8%

SMILES	cytotoxicity at 70.5 h
O=C(C1CC1)N1CCCN(c2ncnc3c2CCNCC3)CC1	-6.41%
CC(C)[C@@H]1CN(C(=O)C2(c3ccccc3)CCN(C)CC2)C[C@H]1C(=O)O	-5.2%
CCCSc1ccccc1NC(=O)N1CCN(C(=O)c2ccc[nH]2)CC1	-1.4%
CCN(Cc1cnn(C)c1)C[C@H]1CC[C@@H](Cc2ccc(CO)cc2)O1	-3.31%
CN1C(=O)[C@H]2CC[C@@H]1CN(c1ncnc3ccsc13)C2	11.8%
Cn1ncc2c(NCCn3cccc3)nc(C3CCCC3)nc21	-5.71%
COc1ccc(CC(=O)N2CCCC(Cn3cc(CN)nn3)C2)cc1 (centres undefined)	-4.47%
CCCN1CCCn2nc(CNC(=O)C3CCOC3)cc2C1 (centres undefined)	-2.94%
COCCN(C)CC(=O)N1C[C@@H](C)[C@](O)(C(C)C)C1	-1.28%
CCN(CC)C(=O)c1ccc(Cl)c(NC(=O)c2csnn2)c1	-10.1%
Cc1cnccc1N1CCN(C[C@]2(O)CCCN3CCCC[C@@H]32)CC1	4.29%
CC(C)n1cnnc1CN(C)Cc1ccc(CN(C)S(C)(=O)=O)o1	-2.72%
COCC(=O)N(Cc1cccnc1)CC1CCCN(C2CCCCC2)C1 (centres undefined)	-5.51%
Cc1ncc(C(=O)N2CCCCC2c2nc3cc(F)ccc3[nH]2)c(O)n1 (centres undefined)	-20%
O=C(CCc1cc2n(n1)CCCN(C(=O)c1ccncc1)C2)NC1CC1	-6.73%
CCCOc1cc(Cl)c(CN2CCNC(C(=O)NC3CC3)C2)cc1OC (centres undefined)	-10.6%
COc1ccc2c(c1)CC(NCCCn1nc(C)nc1C)CC2 (centres undefined)	-9.14%
CCCc1nnc(NC(C)c2ccc(F)cc2)o1 (centres undefined)	-8.69%
CC(C)CC(O)C1CCN(Cc2ccc(N(C)C)nc2)CC1 (centres undefined)	23.2%
CCCn1ccnc1CN1CCCC(O)(CN(C)C)CC1 (centres undefined)	-3.55%
COc1ccc(C(C(=O)O)N2CCC(Cn3cccn3)CC2)cc1F (centres undefined)	22.7%
Cc1nn(CCN2CCSCC2)cc1CNCc1ccccn1	-5.69%

SMILES	cytotoxicity at 70.5 h
O=C(c1ccc(=O)[nH]c1)N1CCC(Oc2cccc(C(F)(F)F)c2)CC1	3.69%
COCC1(Nc2nc(C)nc3c2cnn3C)CCCC1	3.28%
Cn1ncc(N2CCN(Cc3ccc(S(C)(=O)=O)cc3)CC2)cc1=O	-5.42%
CC(=O)N1CCc2c(nc(N(C)C)nc2N(C)CCCC2CCCO2)C1 (centres undefined)	10.7%
COCCNS(=O)(=O)c1cccc2c1CN(C(=O)c1cnccn1)CC2	-3.11%
C[C@@H]1CN(C2CCN(c3ccccc3F)CC2)C[C@]1(C)O	-6.48%
Cn1c(-c2ccccc2Cl)nc2cc(C(=O)NCC3(CO)CC3)cnc21	-10%
COC(=O)C(C)(C)NC(=O)c1cc(COc2ccccc2OC)[nH]n1	10.6%
OCC1(O)CCN(Cc2ccc(C3CCCCO3)o2)CC1 (centres undefined)	-1.61%
O=C(NCCC1COc2ccccc2O1)c1ccc(-c2cc[nH]n2)nc1 (centres undefined)	-4.68%
CCC[C@H]1CN(S(C)(=O)=O)C[C@@H]1NC(=O)COC(C)C	-5.47%
COc1ccc(F)c(-c2ncccc2C(=O)N2C[C@H]3CC[C@@H]2C3)c1	-9.45%
Cc1ccc(C(=O)O)cc1CNC(=O)CN1CC[C@](C)(O)C(C)(C)C1	-6.88%
Cc1ccsc1-c1nccn1CCS(=O)(=O)N1CCCC1	8.18%
Cc1ccc(C(=O)N2CCCC(Cn3cc(C(C)(C)N)nn3)C2)s1 (centres undefined)	-4.81%
O=C(Cc1ccccc1C(F)(F)F)N1CCC2(CC1)[C@H](O)C[C@@H]2O	-6.88%
O=c1cc(N2CCNCC2)cnn1CCc1ccc(F)cc1	-4.81%
Cc1ccc(C)c(-n2cc(CN3CC[C@@H](O)C3)c(-c3ccccc3)n2)c1	-0.782%
O=C1CN(Cc2cn(C3CCN(C4CSCCSC4)CC3)nn2)CCN1	-13.2%
CN1[C@H](CO)C[C@H](CNCc2ccc(Cl)c(F)c2)[C@@H]1c1ccccc1F	-3.08%
COCCn1cnnc1C(C)NC(=O)c1[nH]c2c(C)cc(C)cc2c1C (centres undefined)	14%
CCCC(=O)N(Cc1ccncc1)C(C)CC (centres undefined)	-6.83%

SMILES	cytotoxicity at 70.5 h
Cc1cc(C)c2nc(C)cc(C(=O)NC(C)c3nnn[nH]3)c2c1 (centres undefined)	6.58%
CC(C)[C@H]1CN(c2cnccn2)C[C@@H]1NC(=O)C1(C#N)CCOCC1	-6.21%
CN1CCN(C(=O)c2ccnc(N3CCOC(C(F)(F)F)C3)c2)CC1 (centres undefined)	19%
CCc1nccn1CCC(=O)N1CC[C@@H](c2ccc(F)cc2)[C@H](O)C1	-12.3%
CC(C)(C)c1ccn(C2(C(=O)O)CCN(c3ccnc(N)n3)CC2)n1	-3.43%
CCC(=O)c1ccc(OCC(=O)NC(C)c2nnn[nH]2)cc1 (centres undefined)	-0.478%
Cc1cc(C(=O)NC(C)c2nnn[nH]2)c2ccc(C)c(C)c2n1 (centres undefined)	34.8%
CSc1ccc(C(=O)N2CCCC(Nc3ccc(F)cc3)C2)cc1 (centres undefined)	-0.171%
O=C1CC[C@H]2CN(Cc3cccc(F)c3)CC[C@H]2N1CCc1c[nH]cn1	-2.79%
Clc1cc(NCc2nccs2)nc2[nH]ccc12	-30.7%
O=C(NC[C@H]1CCCN1)c1cc(COc2cccc(C(F)(F)F)c2)[nH]n1	-2.98%
O=C(c1cccc2ccnn12)N1CCCC1Cn1cccn1 (centres undefined)	-2.56%
Cc1cc(C(=O)N[C@H]2COC[C@@H]2N2CCOCC2)c2ccc(F)cc2n1	-8.8%
OC1(CN2CCCCC2)CCN(Cc2c[nH]c(CC3CCCC3)n2)C1 (centres undefined)	-8.48%
CN(C)C(=O)c1cccnc1-c1ccc2c(c1)OCCO2	-18.6%
COCc1ccc(C(=O)N2CCCN(c3ccc(F)cc3)CC2)s1	5.91%
Cc1cc2nc(C(C)C)cc(NC(C)c3nncn3C)n2n1 (centres undefined)	-17.3%
CCN(Cc1cnn(C)c1)C[C@H]1CC[C@@H](Cc2cccc(C#N)c2)O1	-5.55%
CC(=O)N1CCC(N2CCN(Cc3ccc(C)o3)C(CCO)C2)CC1 (centres undefined)	-6.87%
COc1cccn(C(C)C(=O)NC2CCCC2)c1=O (centres undefined)	-1.93%
CCc1nc(C)c(-c2nccn2CC2CCN(C3CCCC3)CC2)[nH]1	-2.56%
CC(C)(C)C(=O)NCCC1CN(Cc2ccccc2F)CCO1 (centres undefined)	-9.52%

SMILES	cytotoxicity at 70.5 h
CC(CN1CC[C@@H]2CCCC[C@@H]2C1)n1cnc2ccccc21 (some centres undefined)	21.4%
Cc1ncc(S(C)(=O)=O)c(N(C)CCCc2cnn(C)c2)n1	-3.73%
Cc1nc(C(F)(F)F)nc(N2CCC3(CC2)CC(C(=O)O)N(C)C3)c1C (centres undefined)	-5.6%
c1coc(-c2nc3c(c(N4CCCN5CCC[C@H]5C4)n2)CCNCC3)c1	-2.19%
Cc1ccsc1-c1nccn1C1CC(=O)N(C(C)C)C1 (centres undefined)	-5.72%
CN(C)CC1(O)CCCN(C(=O)Cc2ccc(Cl)c(Cl)c2)C1 (centres undefined)	-2.73%
FC(F)(F)C1CN(Cc2cccc(-c3ccccn3)c2)CCO1 (centres undefined)	-6.31%
CNc1cc(C)nc(N2CCC3(CC2)[C@H](O)C[C@@H]3O)n1	-6.92%
Cn1ccnc1CN1CCC(CNS(=O)(=O)c2cccnc2)C1 (centres undefined)	7.54%
CCn1ccnc1C1CCN(c2ncnc3ccsc23)CC1	7.55%
COc1ccc(/C=C/CN2CCN(c3nccnc3C)CC2)cc1	-5.85%
Cc1ccsc1-c1nc(CN(C)Cc2cc[nH]n2)c(C)o1	12.8%
Cc1ccnc(CC(C)N(C)Cc2ccc3c(c2)OCCO3)c1 (centres undefined)	-0.147%
N#Cc1nccnc1N1CCN(CCOCc2ccccc2)CC1	16.9%
Cc1[nH]c(=O)[nH]c(=O)c1CC(=O)N1CCCN(CC2CC2)C(C(C)C)C1 (centres undefined)	0.527%
COc1cc(N(C)Cc2cccc(-n3cccn3)c2)nc(N)n1	-1.55%
Cc1ccc(C(=O)N2C[C@@H]3CC[C@H](C2)N(Cc2ccccc2)C3)cn1	17.8%
Cc1ccc(CN2CC[C@@]3(O)CCN(S(=O)(=O)N(C)C)C[C@H]3C2)cc1C	-16%
CCCn1ncc(C(=O)N(CCOC)Cc2c(C)nn(CC)c2C)c1C	-7.73%
Cc1nn2c(N3CCC(C(N)=O)CC3)cc(-c3ccccc3)nc2c1C	-2.04%
CCn1ccnc1CN1CCC(Oc2ccccc2F)(C(=O)O)CC1	-0.995%
